Results: ChEMBL document CHEMBL3885861, “Open TG-GATES”

Organism: Rattus norvegicus
Experiment: Open TG-GATES - Regimen: Daily Repeat
Assay type: toxicity, organism-based, Sprague-Dawley
Design: regimen Daily Repeat, gender Male, age 6 weeks
Details: in vivo, po, 300 mg/kg, route gavage, dose level Middle; for APTT / Bas / Eos / Fbg / Hb / Ht / Lym / MCH / MCHC / MCV / Mono / Neu / PT / Plat / RBC / Ret / WBC: tissue Blood; for KIDNEY_L / KIDNEY_R / KIDNEY_TOTAL: tissue Kidney; for LIVER: tissue Liver; for A/G / ALP / ALT / AST / BUN / CRE / Ca / Cl / DBIL / GLC / IP / K / LDH / Na / PL / RALB / TBIL / TC / TG / TP / gamma-GTP: tissue Plasma

`CC[C@@H](CO)NCCN[C@@H](CC)CO` [ETHAMBUTOL] showed a TERMINAL_BW (72 h, time 3 day) of 239.4 g, an APTT (72 h, time 3 day) of 21.6 s and a Bas (72 h, time 3 day) of 0%. For the same molecule, the Eos (72 h, time 3 day) was 1%, the Fbg (72 h, time 3 day) was 330.2 mg/dL and the Hb (72 h, time 3 day) was 13.7 g/dL. It also gave a Ht (72 h, time 3 day) of 40%, a Lym (72 h, time 3 day) of 75% and an MCH (72 h, time 3 day) of 21.8 pg. It also gave an MCHC (72 h, time 3 day) of 34.3%, an MCV (72 h, time 3 day) of 63.4 fL and a Mono (72 h, time 3 day) of 3%. For the same molecule, the Neu (72 h, time 3 day) was 19.4%, the PT (72 h, time 3 day) was 15.9 s and the Plat (72 h, time 3 day) was 113.3 x10_4/uL. For the same molecule, the RBC (72 h, time 3 day) was 630 x10_4/ul, the Ret (72 h, time 3 day) was 6.3% and the WBC (72 h, time 3 day) was 92.4 x10_2/uL. For the same molecule, the KIDNEY_L (72 h, time 3 day) was 1 g, the KIDNEY_R (72 h, time 3 day) was 1.1 g and the KIDNEY_TOTAL (72 h, time 3 day) was 2.1 g. The LIVER (72 h, time 3 day) was 12.5 g, the A/G (72 h, time 3 day) was 1.3 and the ALP (72 h, time 3 day) was 1720.4 IU/L. It also gave an ALT (72 h, time 3 day) of 43 IU/L, an AST (72 h, time 3 day) of 71 IU/L and a BUN (72 h, time 3 day) of 17.6 mg/dL. The CRE (72 h, time 3 day) was 0.2 mg/dL, the Ca (72 h, time 3 day) was 10.7 mg/dL and the Cl (72 h, time 3 day) was 108 meq/L. The DBIL (72 h, time 3 day) was 0 mg/dL, the GLC (72 h, time 3 day) was 209.6 mg/dL and the IP (72 h, time 3 day) was 7.6 mg/dL. The K (72 h, time 3 day) was 3.9 meq/L, the LDH (72 h, time 3 day) was 164.2 IU/L and the Na (72 h, time 3 day) was 140.8 meq/L. For the same molecule, the PL (72 h, time 3 day) was 163.4 mg/dL, the RALB (72 h, time 3 day) was 3.2 g/dL and the TBIL (72 h, time 3 day) was 0.01 mg/dL. It also gave a TC (72 h, time 3 day) of 90.2 mg/dL, a TG (72 h, time 3 day) of 87.6 mg/dL and a TP (72 h, time 3 day) of 5.7 g/dL. It also gave a gamma-GTP (72 h, time 3 day) of 1.4 IU/L, a TERMINAL_BW ([…], time 7 day) of 262.8 g and a TERMINAL_BW ([…], time 14 day) of 299.9 g. The TERMINAL_BW ([…], time 28 day) was 296 g, the APTT ([…], time 7 day) was 20.8 s and the Bas ([…], time 7 day) was 0%. The Eos ([…], time 7 day) was 0.8%, the Fbg ([…], time 7 day) was 303.8 mg/dL and the Hb ([…], time 7 day) was 14.2 g/dL. It also gave a Ht ([…], time 7 day) of 41.4%, a Lym ([…], time 7 day) of 82.2% and an MCH ([…], time 7 day) of 20.7 pg. It also gave an MCHC ([…], time 7 day) of 34.3%, an MCV ([…], time 7 day) of 60.2 fL and a Mono ([…], time 7 day) of 2.4%. It also gave a Neu ([…], time 7 day) of 13%, a PT ([…], time 7 day) of 16.4 s and a Plat ([…], time 7 day) of 113.9 x10_4/uL. For the same molecule, the RBC ([…], time 7 day) was 688.8 x10_4/ul, the Ret ([…], time 7 day) was 4.2% and the WBC ([…], time 7 day) was 98.6 x10_2/uL. It also gave an APTT ([…], time 14 day) of 20.4 s, a Bas ([…], time 14 day) of 0% and an Eos ([…], time 14 day) of 1%. It also gave a Fbg ([…], time 14 day) of 274.2 mg/dL, a Hb ([…], time 14 day) of 14.2 g/dL and a Ht ([…], time 14 day) of 42.3%. For the same molecule, the Lym ([…], time 14 day) was 82.2%, the MCH ([…], time 14 day) was 19.2 pg and the MCHC ([…], time 14 day) was 33.7%. It also gave an MCV ([…], time 14 day) of 57 fL, a Mono ([…], time 14 day) of 2.4% and a Neu ([…], time 14 day) of 13.2%. The PT ([…], time 14 day) was 16.8 s, the Plat ([…], time 14 day) was 86.9 x10_4/uL and the RBC ([…], time 14 day) was 742.8 x10_4/ul. It also gave a Ret ([…], time 14 day) of 2.3%, a WBC ([…], time 14 day) of 118.5 x10_2/uL and an APTT ([…], time 28 day) of 21.4 s. It also gave a Bas ([…], time 28 day) of 0%, an Eos ([…], time 28 day) of 1.2% and a Fbg ([…], time 28 day) of 257.5 mg/dL. It also gave a Hb ([…], time 28 day) of 14.6 g/dL, a Ht ([…], time 28 day) of 42.3% and a Lym ([…], time 28 day) of 77.2%. For the same molecule, the MCH ([…], time 28 day) was 17.9 pg, the MCHC ([…], time 28 day) was 34.5% and the MCV ([…], time 28 day) was 51.8 fL. For the same molecule, the Mono ([…], time 28 day) was 2.8%, the Neu ([…], time 28 day) was 17.2% and the PT ([…], time 28 day) was 17.8 s. The Plat ([…], time 28 day) was 82.7 x10_4/uL, the RBC ([…], time 28 day) was 817.8 x10_4/ul and the Ret ([…], time 28 day) was 2%. For the same molecule, the WBC ([…], time 28 day) was 127.3 x10_2/uL, the KIDNEY_L ([…], time 7 day) was 1.1 g and the KIDNEY_R ([…], time 7 day) was 1.1 g. The KIDNEY_TOTAL ([…], time 7 day) was 2.2 g, the KIDNEY_L ([…], time 14 day) was 1.3 g and the KIDNEY_R ([…], time 14 day) was 1.3 g. The KIDNEY_TOTAL ([…], time 14 day) was 2.6 g, the KIDNEY_L ([…], time 28 day) was 1.2 g and the KIDNEY_R ([…], time 28 day) was 1.3 g. The KIDNEY_TOTAL ([…], time 28 day) was 2.5 g, the LIVER ([…], time 7 day) was 12.5 g and the LIVER ([…], time 14 day) was 15.8 g. The LIVER ([…], time 28 day) was 14.5 g, the A/G ([…], time 7 day) was 1.1 and the ALP ([…], time 7 day) was 1774.8 IU/L. For the same molecule, the ALT ([…], time 7 day) was 60.2 IU/L, the AST ([…], time 7 day) was 92.2 IU/L and the BUN ([…], time 7 day) was 20.4 mg/dL. For the same molecule, the CRE ([…], time 7 day) was 0.2 mg/dL, the Ca ([…], time 7 day) was 10.2 mg/dL and the Cl ([…], time 7 day) was 107.4 meq/L. It also gave a DBIL ([…], time 7 day) of 0.002 mg/dL, a GLC ([…], time 7 day) of 172.2 mg/dL and an IP ([…], time 7 day) of 7.9 mg/dL. The K ([…], time 7 day) was 4 meq/L, the LDH ([…], time 7 day) was 196 IU/L and the Na ([…], time 7 day) was 142.2 meq/L. The PL ([…], time 7 day) was 141.4 mg/dL, the RALB ([…], time 7 day) was 2.8 g/dL and the TBIL ([…], time 7 day) was 0.026 mg/dL. The TC ([…], time 7 day) was 73 mg/dL, the TG ([…], time 7 day) was 43.2 mg/dL and the TP ([…], time 7 day) was 5.3 g/dL. For the same molecule, the gamma-GTP ([…], time 7 day) was 1.8 IU/L, the A/G ([…], time 14 day) was 1.1 and the ALP ([…], time 14 day) was 2103.2 IU/L. The ALT ([…], time 14 day) was 68 IU/L, the AST ([…], time 14 day) was 115.2 IU/L and the BUN ([…], time 14 day) was 24.4 mg/dL. It also gave a CRE ([…], time 14 day) of 0.2 mg/dL, a Ca ([…], time 14 day) of 9.8 mg/dL and a Cl ([…], time 14 day) of 106.4 meq/L. For the same molecule, the DBIL ([…], time 14 day) was 0.02 mg/dL, the GLC ([…], time 14 day) was 197 mg/dL and the IP ([…], time 14 day) was 7.2 mg/dL. It also gave a K ([…], time 14 day) of 4.6 meq/L, an LDH ([…], time 14 day) of 520.6 IU/L and a Na ([…], time 14 day) of 139.8 meq/L. It also gave a PL ([…], time 14 day) of 139.8 mg/dL, an RALB ([…], time 14 day) of 2.6 g/dL and a TBIL ([…], time 14 day) of 0.042 mg/dL. For the same molecule, the TC ([…], time 14 day) was 79.4 mg/dL, the TG ([…], time 14 day) was 26.4 mg/dL and the TP ([…], time 14 day) was 4.9 g/dL. It also gave a gamma-GTP ([…], time 14 day) of 1.8 IU/L, an A/G ([…], time 28 day) of 1 and an ALP ([…], time 28 day) of 1083.5 IU/L. The ALT ([…], time 28 day) was 66.5 IU/L, the AST ([…], time 28 day) was 136 IU/L and the BUN ([…], time 28 day) was 19.2 mg/dL. For the same molecule, the CRE ([…], time 28 day) was 0.2 mg/dL, the Ca ([…], time 28 day) was 9.4 mg/dL and the Cl ([…], time 28 day) was 109.8 meq/L. The DBIL ([…], time 28 day) was 0.0275 mg/dL, the GLC ([…], time 28 day) was 209 mg/dL and the IP ([…], time 28 day) was 6.8 mg/dL. For the same molecule, the K ([…], time 28 day) was 4.2 meq/L, the LDH ([…], time 28 day) was 602.8 IU/L and the Na ([…], time 28 day) was 140.5 meq/L. The PL ([…], time 28 day) was 117.5 mg/dL, the RALB ([…], time 28 day) was 2.6 g/dL and the TBIL ([…], time 28 day) was 0.055 mg/dL. It also gave a TC ([…], time 28 day) of 70.5 mg/dL, a TG ([…], time 28 day) of 24.5 mg/dL and a TP ([…], time 28 day) of 5.3 g/dL. The gamma-GTP ([…], time 28 day) was 1.5 IU/L.
